Test results from paper PMC10525257, “Hop Flower Supercritical Carbon Dioxide Extracts Coupled with Carriers with Solubilizing Properties—Antioxidant Activity and Neuroprotective Potential” (Antioxidants, 2023).
In brackets after ≈: the same amount, converted by molar mass.

Target: T1, tyrosinase from mushroom
T1 construct: gene PPO1
Experiment: dopachrome absorbance, […] nm, 96-well plate
Type: biochemical
Settings: L-DOPA substrate (2.0 mM stock), phosphate buffer pH 6.8, room temperature

IC50: 6455 ± 249 µg/mL (≈ 34.3 mM)
Compound: O=C(O)CCCCCCCC(=O)O [azelaic acid]
